Source: DBAASP
≈ marks a conversion by molar mass, not a printed value.

Columns and labels:
Test in all cases: ≥ marks a high value that may be exact or a test limit, other limits are often not marked, values filed in µg/mL are converted to µM
Bacillus cereus = system: Bacillus cereus
Escherichia coli = system: Escherichia coli
Staphylococcus aureus = system: Staphylococcus aureus
[1] = system: Acinetobacter baumannii ATCC 19606
Bacillus subtilis = system: Bacillus subtilis
[2] = system: Escherichia coli KCTC 1682
[3] = system: Pseudomonas aeruginosa KCTC 1637
[4] = system: Salmonella typhimurium KCTC 1926
[5] = system: Staphylococcus aureus KCTC 1621
[6] = system: Staphylococcus epidermidis KCTC 1917

Row | Compound | MIC (Bacillus cereus) [µM] | MIC (Escherichia coli) [µM] | MIC (Staphylococcus aureus) [µM] | MIC (Bacillus subtilis) [µM] | other results
1 | CC(C)C[C@H](NC(=O)[C@@H](N)Cc1ccccc1)C(=O)NCC(=O)N[C@@H](CCCCN)C(=O)N[C@H](C(=O)N[C@@H](Cc1ccccc1)C(=O)N[C@@H](CCCCN)C(=O)NCC(=O)N[C@@H](C)C(=O)N[C@@H](CO)C(=O)N[C@@H](CCCCN)C(=O)N[C@H](C(=O)N[C@H](C(=O)N1CCC[C@H]1C(=O)N[C@@H](C)C(=O)N[C@H](C(=O)N[C@@H](Cc1ccccc1)C(=O)NCC(=O)N[C@@H](CCCCN)C(=O)N[C@H](C(=O)O)C(C)C)C(C)C)C(C)C)C(C)C)C(C)C [FLGKVFKGASKVVPAVFGKV] | ≥ 123 | > 123 | > 123 | – | –
2 | CC[C@H](C)[C@H](NC(=O)[C@@H]1CCCN1C(=O)[C@H](CC(C)C)NC(=O)[C@@H](N)Cc1ccccc1)C(=O)N[C@@H](C)C(=O)NCC(=O)N[C@@H](CCCCN)C(=O)N[C@@H](CC(C)C)C(=O)N[C@@H](CC(C)C)C(=O)N[C@@H](CO)C(=O)NCC(=O)N[C@@H](CC(C)C)C(=O)N[C@@H](CO)C(=O)NCC(=O)N[C@@H](CC(C)C)C(=O)N[C@@H](CC(C)C)C(=O)O [FLPIAGKLLSGLSGLL] | – | – | – | – | MIC [1]: > 62.5 µM
3 | CC[C@H](C)[C@H](NC(=O)[C@H](CC(C)C)NC(=O)[C@H](C)NC(=O)[C@@H]1CCCN1C(=O)[C@H](CC(C)C)NC(=O)CN)C(=O)N[C@@H](CO)C(=O)N[C@@H](Cc1c[nH]c2ccccc12)C(=O)N[C@H](C(=O)N[C@@H](CCCCN)C(=O)N[C@@H](CCCN=C(N)N)C(=O)N[C@@H](CCCCN)C(=O)N[C@@H](CCCN=C(N)N)C(=O)N[C@@H](CCC(N)=O)C(=O)N[C@@H](CCC(N)=O)C(N)=O)[C@@H](C)CC [GLPALISWIKRKRQQ] | – | 49.5 (≈ 88.9 µg/mL) | 3.12 (≈ 5.6 µg/mL) | 3.12 (≈ 5.6 µg/mL) | –
4 | CC[C@H](C)[C@H](NC(=O)[C@H](Cc1c[nH]c2ccccc12)NC(=O)[C@H](CO)NC(=O)[C@H](CO)NC(=O)[C@H](CC(C)C)NC(=O)[C@H](C)NC(=O)[C@@H]1CCCN1C(=O)[C@H](CC(C)C)NC(=O)CN)C(=O)N[C@@H](CCCCN)C(=O)N[C@@H](CCCN=C(N)N)C(=O)N[C@@H](CCCCN)C(=O)N[C@@H](CCCN=C(N)N)C(=O)N[C@@H](CCC(N)=O)C(=O)N[C@@H](CCC(N)=O)C(N)=O [GLPALSSWIKRKRQQ] | – | 176 (≈ 311 µg/mL) | 8.26 (≈ 14.6 µg/mL) | 22.1 (≈ 39 µg/mL) | –
5 | CC[C@H](C)[C@H](N)C(=O)N[C@@H](CC(C)C)C(=O)NCC(=O)N[C@@H](CCCCN)C(=O)N[C@H](C(=O)N[C@@H](CC(C)C)C(=O)N[C@@H](CCC(=O)O)C(=O)NCC(=O)N[C@H](C(=O)N[C@@H](CCCCN)C(=O)N[C@@H](CO)C(=O)N[C@@H](CC(C)C)C(=O)N[C@@H](Cc1ccccc1)C(N)=O)[C@@H](C)CC)[C@@H](C)CC [ILGKILEGIKSLF] | – | – | – | – | MIC [2]: 16 µM (≈ 22.9 µg/mL); MIC [3]: 16 µM (≈ 22.9 µg/mL); MIC [4]: 16 µM (≈ 22.9 µg/mL); MIC [5]: 4 µM (≈ 5.72 µg/mL); MIC [6]: ≥ 32 µM
6 | CC[C@H](C)[C@H](N)C(=O)N[C@@H](CC(N)=O)C(=O)N[C@@H](Cc1c[nH]c2ccccc12)C(=O)N[C@@H](CCCCN)C(=O)N[C@@H](CCCCN)C(=O)N[C@H](C(=O)N[C@@H](Cc1ccccc1)C(=O)N[C@@H](CCC(=O)O)C(=O)N[C@@H](CCCCN)C(=O)N[C@H](C(=O)N[C@@H](CO)C(=O)N[C@@H](CC(N)=O)C(=O)N[C@@H](CC(C)C)C(=O)N[C@H](C(N)=O)C(C)C)C(C)C)[C@@H](C)CC [INWKKIFEKVSNLV] | – | 12.5 (≈ 21.5 µg/mL) | – | 22.5 (≈ 38.6 µg/mL) | –
7 | CC[C@H](C)[C@H](N)C(=O)N[C@@H](Cc1c[nH]c2ccccc12)C(=O)N[C@@H](CC(N)=O)C(=O)N[C@@H](CCCCN)C(=O)N[C@H](C(=O)N[C@@H](C)C(=O)N[C@@H](CCCCN)C(=O)N[C@@H](CO)C(=O)N[C@H](C(=O)NCC(=O)N[C@@H](CCCCN)C(=O)N[C@H](C(=O)N[C@@H](CC(C)C)C(=O)N[C@@H](CCC(=O)O)C(=O)N[C@@H](CCCCN)C(=O)N[C@@H](C)C(=O)N[C@@H](CC(C)C)C(N)=O)C(C)C)[C@@H](C)CC)[C@@H](C)CC [IWNKIAKSIGKVLEKAL] | – | 15 (≈ 28.7 µg/mL) | – | ≥ 35 | –
8 | CC[C@H](C)[C@H](NC(=O)[C@H](CCSC)NC(=O)[C@H](CO)NC(=O)[C@@H](NC(=O)[C@H](CC(C)C)NC(=O)[C@H](CO)NC(=O)[C@@H]1CCCN1C(=O)[C@@H](NC(=O)[C@@H](NC(=O)[C@H](CCCCN)NC(=O)[C@H](CO)NC(=O)[C@H](C)NC(=O)[C@@H](NC(=O)[C@H](CCCN=C(N)N)NC(=O)CNC(=O)[C@@H](NC(=O)[C@H](Cc1ccccc1)NC(=O)[C@H](CO)NC(=O)[C@@H](N)CC(C)C)C(C)C)C(C)C)C(C)C)C(C)C)[C@@H](C)CC)C(=O)N[C@@H](CCCCN)C(=O)O [LSFVGRVASKVVPSLISMIK] | ≥ 120 | 120 (≈ 256 µg/mL) | – | – | –
9 | CC[C@H](C)[C@H](NC(=O)[C@H](CCC(=O)O)NC(=O)[C@H](CCC(=O)O)NC(=O)[C@H](CO)NC(=O)[C@H](CC(C)C)NC(=O)[C@H](CC(C)C)NC(=O)[C@H](Cc1c[nH]c2ccccc12)NC(=O)[C@H](CC(N)=O)NC(=O)[C@H](CCC(=O)O)NC(=O)CNC(=O)[C@H](CC(N)=O)NC(=O)[C@H](CCCCN)NC(=O)[C@H](CC(C)C)NC(=O)[C@H](CO)NC(=O)[C@H](Cc1ccc(O)cc1)NC(=O)[C@@H]1CCCN1)C(=O)N[C@H](C(=O)N[C@@H](CCCN=C(N)N)C(=O)N[C@@H](Cc1ccc(O)cc1)C(=O)N1CCC[C@H]1C(=O)O)[C@@H](C)CC [PYSLKNGENWLLSEEIIRYP] | ≥ 106 | > 106 | – | – | –
10 | CSCC[C@H](NC(=O)[C@H](CO)NC(=O)[C@H](Cc1ccccc1)NC(=O)[C@@H](NC(=O)[C@H](C)NC(=O)[C@@H]1CCCN1C(=O)[C@H](Cc1ccccc1)NC(=O)[C@@H](NC(=O)[C@H](CCCCN)NC(=O)[C@H](CO)NC(=O)[C@H](C)NC(=O)[C@H](CC(C)C)NC(=O)[C@H](CCCCN)NC(=O)CNC(=O)[C@@H](NC(=O)[C@H](C)NC(=O)[C@@H](N)CO)C(C)C)C(C)C)C(C)C)C(=O)N[C@H](C(=O)N[C@H](C(=O)N[C@@H](CCCCN)C(=O)O)[C@@H](C)O)C(C)C [SAVGKLASKVFPAVFSMVTK] | ≥ 124 | > 124 | – | – | –
11 | CC[C@H](C)[C@H](NC(=O)[C@@H]1CCCN1C(=O)[C@@H](NC(=O)[C@H](CO)NC(=O)[C@H](CO)NC(=O)[C@@H](N)CO)[C@@H](C)CC)C(=O)N[C@@H](CCCCN)C(=O)N[C@@H](CCSC)C(=O)N[C@H](C(=O)N[C@@H](CC(C)C)C(=O)N[C@H](C(=O)N[C@@H](CCCN=C(N)N)C(=O)N[C@@H](C)C(=O)N[C@@H](CC(C)C)C(=O)N[C@H](C(=O)N[C@@H](Cc1ccccc1)C(=O)N[C@H](C(=O)N[C@@H](CCCCN)C(=O)N[C@@H](CO)C(=O)NCC(=O)O)C(C)C)C(C)C)C(C)C)C(C)C [SSSIPIKMVLVRALVFVKSG] | ≥ 120 | > 120 | – | – | –

Further lines, with some results ahead:

Row | MIC (Bacillus cereus) [µM] | MIC (Escherichia coli) [µM] | MIC (Staphylococcus aureus) [µM] | MIC (Bacillus subtilis) [µM] | Compound | other results
12 | ≥ 61.8 | > 61.8 | – | – | CC[C@H](C)[C@H](NC(=O)[C@@H](NC(=O)[C@@H](NC(=O)[C@H](CCCCN)NC(=O)[C@@H](N)Cc1ccccc1)C(C)C)C(C)C)C(=O)N[C@@H](CO)C(=O)N[C@@H](CCCCN)C(=O)N1CCC[C@H]1C(=O)NCC(=O)N[C@@H](CC(C)C)C(=O)N[C@@H](CO)C(=O)N[C@H](C(=O)N[C@@H](CCCN=C(N)N)C(=O)N[C@H](C(=O)NCC(=O)N[C@H](C(=O)N[C@@H](C)C(=O)N[C@@H](CC(C)C)C(=O)N[C@H](C(=O)N[C@H](C(=O)O)[C@@H](C)O)C(C)C)[C@@H](C)O)C(C)C)C(C)C [FKVVISKPGLSVRVGTALVT] | –
13 | ≥ 58.2 | 14.6 (≈ 32 µg/mL) | > 58.2 | – | CC(C)C[C@H](NC(=O)[C@@H](N)Cc1ccccc1)C(=O)NCC(=O)N[C@@H](CCCCN)C(=O)N[C@H](C(=O)N[C@@H](Cc1ccccc1)C(=O)N[C@@H](CCCCN)C(=O)N[C@@H](CCCCN)C(=O)N[C@@H](C)C(=O)N[C@@H](CO)C(=O)N[C@@H](CCCCN)C(=O)N[C@H](C(=O)N[C@@H](Cc1ccccc1)C(=O)N1CCC[C@H]1C(=O)N[C@@H](C)C(=O)N[C@H](C(=O)N[C@@H](Cc1ccccc1)C(=O)NCC(=O)N[C@@H](CCCCN)C(=O)N[C@H](C(=O)O)C(C)C)C(C)C)C(C)C)C(C)C [FLGKVFKKASKVFPAVFGKV] | –
14 | – | 27.1 (≈ 41.7 µg/mL) | 0.845 (≈ 1.3 µg/mL) | 0.423 (≈ 0.65 µg/mL) | CC[C@H](C)[C@H](NC(=O)[C@H](CC(C)C)NC(=O)[C@H](C)NC(=O)[C@@H]1CCCN1C(=O)[C@H](CC(C)C)NC(=O)CN)C(=O)N[C@@H](CO)C(=O)N[C@@H](Cc1c[nH]c2ccccc12)C(=O)N[C@H](C(=O)N[C@@H](CCCCN)C(=O)N[C@@H](CCCN=C(N)N)C(=O)N[C@@H](CCCCN)C(=O)N[C@@H](CCCN=C(N)N)C(N)=O)[C@@H](C)CC [GLPALISWIKRKR] | –
15 | – | 3.5 (≈ 6.25 µg/mL) | 1.74 (≈ 3.1 µg/mL) | 0.897 (≈ 1.6 µg/mL) | CC[C@H](C)[C@H](NC(=O)[C@H](CC(C)C)NC(=O)[C@H](C)NC(=O)[C@H](CO)NC(=O)[C@H](CC(C)C)NC(=O)CN)C(=O)N[C@@H](CO)C(=O)N[C@@H](Cc1c[nH]c2ccccc12)C(=O)N[C@H](C(=O)N[C@@H](CCCCN)C(=O)N[C@@H](CCCN=C(N)N)C(=O)N[C@@H](CCCCN)C(=O)N[C@@H](CCCN=C(N)N)C(=O)N[C@@H](CCC(N)=O)C(=O)N[C@@H](CCC(N)=O)C(N)=O)[C@@H](C)CC [GLSALISWIKRKRQQ] | –
16 | ≥ 131 | > 131 | – | – | CC[C@H](C)[C@H](NC(=O)[C@@H]1CCCN1C(=O)[C@H](CO)NC(=O)[C@@H](NC(=O)[C@@H](NC(=O)[C@@H](NC(=O)[C@H](C)NC(=O)[C@H](CC(C)C)NC(=O)[C@H](CCCCN)NC(=O)[C@H](CO)NC(=O)[C@H](C)NC(=O)[C@@H](NC(=O)[C@H](CCCCN)NC(=O)[C@@H](NC(=O)[C@@H](NC(=O)[C@@H](N)CO)[C@@H](C)O)C(C)C)C(C)C)C(C)C)C(C)C)C(C)C)C(=O)N[C@@H](CO)C(=O)N[C@@H](CCCCN)C(=O)NCC(=O)N[C@@H](CO)C(=O)O [STVKVASKLAVVVSPISKGS] | –
